# According to patent publication US20160137639A1, “TRIAZOLE-ISOXAZOLE COMPOUND AND MEDICAL USE THEREOF” (JAPAN TOBACCO INC., priority 2012, published 2016):
# Molecular target: T1, human RORγ (Homo sapiens, UniProt P51449)
# T1 construct: human, NM_005060.3 and from Ser253 to Lys518; expressed in transfected cells; host or cells: CHO cells (transient co-transfection with pG5-Luc reporter)
# T1 sequence (P51449 253-518): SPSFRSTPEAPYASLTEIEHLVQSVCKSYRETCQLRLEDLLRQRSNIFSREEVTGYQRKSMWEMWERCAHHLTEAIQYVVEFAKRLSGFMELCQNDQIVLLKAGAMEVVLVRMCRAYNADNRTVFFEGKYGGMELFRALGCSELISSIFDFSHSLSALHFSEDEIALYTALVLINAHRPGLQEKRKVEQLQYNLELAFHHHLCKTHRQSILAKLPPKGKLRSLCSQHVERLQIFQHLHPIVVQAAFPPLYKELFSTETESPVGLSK
# Experiment: Luciferase reporter gene assay of inhibitory effect against RORγ transcriptional activity (GAL4-hRORγ plasmid in CHO cells)
# Type: cell-based
# Details: read-out: LUC EC50 (μM) hRORg
# Experimental: (§1) In vitro assay of inhibitory effect against RORγ transcriptional activity
# (§2) Inhibitory effect of test article on transcriptional activity of RORγ was measured by means of the following luciferase reporter gene assay.
# (§3) A cDNA encoding human and mouse RORγ ligand binding domain (LBD) were obtained based on the reported sequences (Genebank accession number and sequence: human, NM_005060.3 and from Ser253 to Lys518; mouse, NM_011281.2 and from Ile251 to Lys516).
# (§4) The cDNA of human RORγ or mouse RORγ was inserted into pFA-CMV vector (Strategene), which expresses GAL4-DNA binding domain fusion protein.
# (§5) The resulting plasmids are hereinafter referred to as GAL4-hRORγ plasmid and GAL4-mRORγ plasmid, respectively.
# (§6) Human or mouse GAL4-RORγ plasmid was transiently co-transfected into Chinese hamster ovary cells (CHO cells) with […] plasmid, a reporter plasmid expressing firefly luciferase depending on GAL4.
# (§7) TransIT CHO transfection reagent (Mirus) was used to co-transfect human or mouse GAL4-RORγ plasmid into CHO cells with pG5-Luc plasmid.
# (§8) One day before the assay, CHO cells were suspended in HAM F-12 Nutrient medium containing 10 v/v % fetal bovine serum and seeded at 6×10^6 cells per 175 cm^2 cell culture flask.
# (§9) Fifty four micro litters of Transit-CHO reagent was added into a 15 ml tube containing 1.16 ml of HAM F-12 Nutrient medium without fetal bovine serum and incubated at room temperature for 10 min.
# A total 36 uL plasmid solution containing the GAL4-hRORγ plasmid (400 ng), pG5-Luc plasmid (9000 ng) and pcDNA3 plasmid (8600 ng) were added into the tube and mixed gently.
# (§10) The mixture was incubated at room temperature for 10 min.
# (§11) Nine micro litters of CHO Mojo Reagent was then added into each tube and mixed gently. The mixture was incubated at room temperature for 10 min.
# (§12) The resultant transfection reagent was applied to the cell culture.
# (§13) After incubation at 37° C., 5% CO2 for 4 hr, the transfected CHO cells were harvested by a trypsin treatment.
# (§14) The collected cells were resuspended in HAM F-12 Nutrient medium supplemented with 10 v/v % fetal bovine serum and plated into a 384-well-white plate at 8,000 cells/50 uL/well.
# (§15) The plate was incubated at room temperature for 1 hour and then further incubated at 37° C., 5% CO2 for 3 hours.
# (§16) The test articles were dissolved in dimethylsulfoxide (DMSO) to obtain a concentration of 10 mmol/L. The resulting solution was diluted with the medium just before use and added to the cells in the plate to prepare 8 different concentrations of the test article.
# (§17) The final concentration of DMSO was 0.1 v/v % After the addition of the test articles, the cells were incubated at 37° C., 5% CO2 for 2 days.
# (§18) RORγ transcriptional activity was detected as the intracellular luciferase activity using SteadyLite HTS Reporter Gene Assay System (Perkin Elmer).
# (§19) StedyLite Reagent was diluted five-fold into a solution containing 10 mM Tricine, 0.2% w/v BSA, 0.02% v/v Tween-20 to obtain the luciferase substrate solution.
# (§20) After the measurement of the cell viability using Resazurin, the culture media in the 384 well-plate were removed. Then the Luc substrate solution was added into each well.
# (§21) After the incubation at room temperature for 10 minutes, luminescence of each well was measured by a microplate reader.
# (§22) The luciferase activity derived from the luminescence count in the vehicle-control well treated with 0.1% DMSO alone was defined as 100%, and the luciferase activity in the test article was calculated as a percentage (%-of-control) based on the value of the vehicle-control.
# (§23) EC50 value of test article was calculated by curve fitting with GraphPad Prism.
# (§24) The luminescence counts at the concentration of the test article where the cytotoxicity was observed were excluded from the data analysis.
row,SMILES,EC50 [µM]
1,Cc1cc(C(N)=O)ccc1NC(=O)CCc1nnc(CCC(C)C)n1C1CC1 [Example F-157],> 3
2,"CC(=O)N1C[C@H](C(=O)Nc2ccc(C)cc2C)[C@@H](c2nnc(CCC3CC3(C)C)n2C2CC2)C1 (single isomer, unassigned) [Example F-328]",< 3
3,CC(F)(F)c1c([C@@H](CCC(=O)O)CC(=O)Nc2ccc(Cl)cc2F)noc1-c1cc(C(F)(F)C(C)(C)C)on1 [Example E-66],< 3
4,CC(=O)N1C[C@H](C(=O)Nc2ccc(C)cc2C)[C@@H](c2nnc([C@H]3C[C@@H](OC(C)C)C3)n2C2CC2)C1 [Example F-336],> 3
5,CC(=O)N1C[C@@H](C(=O)Nc2ccc(C)cc2C)[C@H](c2nnc([C@H]3C[C@H](OC(C)C)C3)n2C2CC2)C1 [Example F-335],> 3
6,COc1cc(C)ccc1CNC(=O)CCc1nnc(CC[C@H]2CC[C@H](C)CC2)n1C1CC1 [Example F-241],< 3
7,Cc1ccc(NC(=O)C[C@H](C[C@H](O)CO)c2nnc(CCCC(C)C)n2C2CC2)c(C)c1 [Example F-343],< 3
8,Cc1cccc(NC(=O)CCc2nnc(CCC(C)C)n2C2CC2)c1C [Example F-78],> 3
9,CCn1c(CCC(=O)Nc2cc(C)cc(C)c2)nnc1CCC1CCCCC1 [Example F-38],< 3
10,Cc1ccc(NC(=O)C[C@H](CCC(=O)O)c2noc(-c3cc(CCC(C)(C)C)on3)c2C2CC2)c(Cl)c1 [Example E-22],< 3
11,COc1cc(C)ccc1CNC(=O)CCc1nnc(CCC2(C)CCCCC2)n1C1CC1 [Example F-270],< 3
12,CC(C)CCc1nnc(CCC(=O)NCc2ccc(C(F)(F)F)cc2)n1C1CC1 [Example F-129],> 3
13,Cc1cccc(C)c1NC(=O)CCc1nnc(CCC(C)C)n1C1CC1 [Example F-70],> 3
14,Cc1ccc(NC(=O)CC(CCO)c2nnc(C(F)(F)CCC(C)(C)C)n2C2CC2)c(C)c1 (racemic) [Example F-366],< 3
15,"Cc1ccc(NC(=O)C(C)C(CCO)c2nnc([C@H]3C[C@@H](CC(C)C)C3)n2C2CC2)c(C)c1 (single isomer, unassigned) [Example F-491]",> 3
16,COCC(=O)NC[C@@H](CC(=O)Nc1ccc(C)cc1C)c1nnc([C@H]2C[C@@H](CC(C)C)C2)n1C1CC1 [Example F-487],< 3
17,Cc1ccc(NC(=O)CC(Cc2ccccn2)c2nnc([C@H]3C[C@@H](CC(C)C)C3)n2C2CC2)c(C)c1 (mixture of isomers) [Example F-422],< 3
18,Cc1c(Cl)cccc1NC(=O)CCc1nnc(C(C)CC(C)C)n1C1CC1 (racemic) [Example F-98],> 3

# Molecular target: T2, mouse RORγ (Mus musculus, UniProt P51450)
# T2 construct: mouse, NM_011281.2 and from Ile251 to Lys516; expressed in transfected cells; host or cells: CHO cells (transient co-transfection with pG5-Luc reporter)
# T2 sequence (P51450 251-516): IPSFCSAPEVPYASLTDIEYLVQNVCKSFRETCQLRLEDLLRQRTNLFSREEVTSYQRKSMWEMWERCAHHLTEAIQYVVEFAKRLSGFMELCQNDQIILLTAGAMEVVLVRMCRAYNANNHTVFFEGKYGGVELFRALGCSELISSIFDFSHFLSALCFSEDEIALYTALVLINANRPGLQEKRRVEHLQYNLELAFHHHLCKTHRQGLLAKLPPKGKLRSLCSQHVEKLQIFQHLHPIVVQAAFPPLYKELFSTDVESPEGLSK
# Experiment: Luciferase reporter gene assay of inhibitory effect against RORγ transcriptional activity (GAL4-mRORγ plasmid in CHO cells)
# Type: cell-based
# Details: read-out: LUC EC50 (μM) mRORg
# Experimental: as §1, §2, §3, §4, §5, §6, §7, §8, §9, §10, §11, §12, §13, §14, §15, §16, §17, §18, §19, §20, §21, §22, §23, §24
row,SMILES,EC50 [µM]
1,Cc1cc(C(N)=O)ccc1NC(=O)CCc1nnc(CCC(C)C)n1C1CC1 [Example F-157],> 3
2,"CC(=O)N1C[C@H](C(=O)Nc2ccc(C)cc2C)[C@@H](c2nnc(CCC3CC3(C)C)n2C2CC2)C1 (single isomer, unassigned) [Example F-328]",< 3
3,CC(F)(F)c1c([C@@H](CCC(=O)O)CC(=O)Nc2ccc(Cl)cc2F)noc1-c1cc(C(F)(F)C(C)(C)C)on1 [Example E-66],< 3
4,CC(=O)N1C[C@H](C(=O)Nc2ccc(C)cc2C)[C@@H](c2nnc([C@H]3C[C@@H](OC(C)C)C3)n2C2CC2)C1 [Example F-336],> 3
5,CC(=O)N1C[C@@H](C(=O)Nc2ccc(C)cc2C)[C@H](c2nnc([C@H]3C[C@H](OC(C)C)C3)n2C2CC2)C1 [Example F-335],> 3
6,COc1cc(C)ccc1CNC(=O)CCc1nnc(CC[C@H]2CC[C@H](C)CC2)n1C1CC1 [Example F-241],< 3
7,Cc1ccc(NC(=O)C[C@H](C[C@H](O)CO)c2nnc(CCCC(C)C)n2C2CC2)c(C)c1 [Example F-343],< 3
8,Cc1cccc(NC(=O)CCc2nnc(CCC(C)C)n2C2CC2)c1C [Example F-78],< 3
9,CCn1c(CCC(=O)Nc2cc(C)cc(C)c2)nnc1CCC1CCCCC1 [Example F-38],> 3
10,Cc1ccc(NC(=O)C[C@H](CCC(=O)O)c2noc(-c3cc(CCC(C)(C)C)on3)c2C2CC2)c(Cl)c1 [Example E-22],< 3
11,COc1cc(C)ccc1CNC(=O)CCc1nnc(CCC2(C)CCCCC2)n1C1CC1 [Example F-270],< 3
12,CC(C)CCc1nnc(CCC(=O)NCc2ccc(C(F)(F)F)cc2)n1C1CC1 [Example F-129],> 3
13,Cc1cccc(C)c1NC(=O)CCc1nnc(CCC(C)C)n1C1CC1 [Example F-70],> 3
14,Cc1ccc(NC(=O)CC(CCO)c2nnc(C(F)(F)CCC(C)(C)C)n2C2CC2)c(C)c1 (racemic) [Example F-366],< 3
15,"Cc1ccc(NC(=O)C(C)C(CCO)c2nnc([C@H]3C[C@@H](CC(C)C)C3)n2C2CC2)c(C)c1 (single isomer, unassigned) [Example F-491]",< 3
16,COCC(=O)NC[C@@H](CC(=O)Nc1ccc(C)cc1C)c1nnc([C@H]2C[C@@H](CC(C)C)C2)n1C1CC1 [Example F-487],< 3
17,Cc1ccc(NC(=O)CC(Cc2ccccn2)c2nnc([C@H]3C[C@@H](CC(C)C)C3)n2C2CC2)c(C)c1 (mixture of isomers) [Example F-422],< 3
18,Cc1c(Cl)cccc1NC(=O)CCc1nnc(C(C)CC(C)C)n1C1CC1 (racemic) [Example F-98],< 3
